# Assay results reported in patent US7750013B2, “N-oxides as prodrugs of piperazine and piperidine derivatives” (Solvay Pharmaceuticals, B.V., priority 2005, dated 2010).
# Tests used:
# [1] = Plasma concentrations of tertiary amines and their N-oxides in mice (LC-MS); details: mouse, in vivo
# Method: The LC-MS system consists of 2 Perkin elmer series 200 micro pumps. The pumps are connected to each other by a 50 μl tee mixer, connected to a Gilson 215 auto sampler. The method is as follows:
# The auto sampler has a 2 μl injection loop. The auto sampler is connected to a Waters Atlantis C18 30*4.6 mm column with 3 μm particles. The column is thermo stated in a Perkin Elmer series 200 column oven at 40° C. The column is connected to a Perkin Elmer series 200 UV meter with a 2.7 μl flowcel. The wavelength is set to 254 nm. The UV meter is connected to a Sciex API 150EX mass spectrometer. The mass spectrometer has the following parameters: Scanrange: 150-900 a.m.u.; polarity: positive; scan mode: profile; resolution Q1: UNIT; step size: 0.10 a.m.u.; time per scan: 0.500 sec; NEB: 10; CUR: 10; IS: 5200; TEM: 325; DF: 30; FP: 225 and EP: 10. The light scattering detector is connected to the Sciex API 150. The light scattering detector is a Sedere Sedex 55 operating at 50° C. and 3 bar N2. The complete system is controlled by a G3 powermac.
# For oral (p.o.) administration: to the desired quantity (0.5-5 mg) of the solid test compound in a glass tube, some glass beads were added and the solid was milled by vortexing for 2 minutes. After addition of 1 ml of a solution of 1% methylcellulose in water and 2% (v/v) of Poloxamer 188 (Lutrol F68), the compound was suspended by vortexing for 10 minutes. The pH was adjusted to 7. Remaining particles in the suspension were further suspended by using an ultrasonic bath.
# For intravenous (i.v.) administration: compounds were dissolved in physiological saline (0.9% NaCl) and the pH was adjusted to 7.
# Bifeprunox, SLV308 and SLV318 as well as their respective N-oxides were individually administered (either intravenously (i.v.) or orally (p.o.)) to mice (3 animals per time point), after which their blood was analyzed by LC-MS (method see above) for both the parent amine and its N-oxide. Data were averaged (n=3), and collected in the tables below.
# [2] = Metabolism to the N-oxide in man; type: in vivo; details: after administration of the tertiary amine
# Description: But also its N-desmethyl analog and its N-oxide were detected in the plasma of all three species, after oral administration of SLV308. In man, the N-oxide accounts for approximately 30% of the administered dose.
# In man, neither bifeprunox nor SLV318 are metabolized to their respective N-oxides. […] For this reason there never has been an incentive to synthesize and study these compounds until the unexpected findings with the N-oxide of SLV308.
smiles,measurement,setting,value
O=c1[nH]c2cccc(N3CCN(Cc4ccccc4)CC3)c2o1 [SLV318],Formation of N-oxide as metabolite (in words),[1],does not give rise to a significant amount of N-oxide as metabolite
same,Analyzed in blood: N-oxide (of SLV318),"[1]; iv, 0.5 mg/kg, 0.17 hr",1 ng/mL
same,Analyzed in blood: SLV318,"[1]; iv, 0.5 mg/kg, 0.17 hr",164 ng/mL
same,Analyzed in blood: N-oxide (of SLV318),"[1]; iv, 0.5 mg/kg, 0.5 hr",0 ng/mL
same,Analyzed in blood: SLV318,"[1]; iv, 0.5 mg/kg, 0.5 hr",51 ng/mL
same,Analyzed in blood: N-oxide (of SLV318),"[1]; iv, 0.5 mg/kg, 1 hr",0 ng/mL
same,Analyzed in blood: SLV318,"[1]; iv, 0.5 mg/kg, 1 hr",18 ng/mL
same,Analyzed in blood: N-oxide (of SLV318),"[1]; iv, 0.5 mg/kg, 3 hr",0 ng/mL
same,Analyzed in blood: SLV318,"[1]; iv, 0.5 mg/kg, 3 hr",2 ng/mL
same,Analyzed in blood: N-oxide (of SLV318),"[1]; iv, 0.5 mg/kg, 7 hr",0 ng/mL
same,Analyzed in blood: SLV318,"[1]; iv, 0.5 mg/kg, 7 hr",0.2 ng/mL
same,Analyzed in blood: N-oxide (of SLV318),"[1]; iv, 0.5 mg/kg, 24 hr",0 ng/mL
same,Analyzed in blood: SLV318,"[1]; iv, 0.5 mg/kg, 24 hr",0 ng/mL
same,Analyzed in blood: N-oxide (of SLV318),"[1]; po, 5 mg/kg, 0.17 hr",0 ng/mL
same,Analyzed in blood: SLV318,"[1]; po, 5 mg/kg, 0.17 hr",71 ng/mL
same,Analyzed in blood: N-oxide (of SLV318),"[1]; po, 5 mg/kg, 0.5 hr",0 ng/mL
same,Analyzed in blood: SLV318,"[1]; po, 5 mg/kg, 0.5 hr",33 ng/mL
same,Analyzed in blood: N-oxide (of SLV318),"[1]; po, 5 mg/kg, 1 hr",0 ng/mL
same,Analyzed in blood: SLV318,"[1]; po, 5 mg/kg, 1 hr",19 ng/mL
same,Analyzed in blood: N-oxide (of SLV318),"[1]; po, 5 mg/kg, 3 hr",0 ng/mL
same,Analyzed in blood: SLV318,"[1]; po, 5 mg/kg, 3 hr",9 ng/mL
same,Analyzed in blood: N-oxide (of SLV318),"[1]; po, 5 mg/kg, 7 hr",0 ng/mL
same,Analyzed in blood: SLV318,"[1]; po, 5 mg/kg, 7 hr",2 ng/mL
same,Analyzed in blood: N-oxide (of SLV318),"[1]; po, 5 mg/kg, 24 hr",0 ng/mL
same,Analyzed in blood: SLV318,"[1]; po, 5 mg/kg, 24 hr",0 ng/mL
same,N-oxide as metabolite in blood plasma (in words),[2],never detected in significant concentrations
"O=c1[nH]c2cccc(N3CC[N+]([O-])(Cc4cccc(-c5ccccc5)c4)CC3)c2o1 [N-oxide of bifeprunox, N-Oxide of Bifeprunox]",Analyzed in blood: Bifeprunox,"[1]; iv, 0.5 mg/kg, 0 hr",0 ng/mL
same,Analyzed in blood: Bifeprunox,"[1]; iv, 0.5 mg/kg, 0.5 hr",176 ng/mL
same,Analyzed in blood: N-oxide (of bifeprunox),"[1]; iv, 0.5 mg/kg, 0.5 hr",85 ng/mL
same,Analyzed in blood: Bifeprunox,"[1]; iv, 0.5 mg/kg, 3 hr",80 ng/mL
same,Analyzed in blood: N-oxide (of bifeprunox),"[1]; iv, 0.5 mg/kg, 7 hr",5 ng/mL
same,Analyzed in blood: N-oxide (of bifeprunox),"[1]; iv, 0.5 mg/kg, 24 hr",0 ng/mL
same,Analyzed in blood: Bifeprunox,"[1]; po, 5 mg/kg, 1 hr",520 ng/mL
same,Analyzed in blood: N-oxide (of bifeprunox),"[1]; po, 5 mg/kg, 1 hr",70 ng/mL
same,Analyzed in blood: N-oxide (of bifeprunox),"[1]; po, 5 mg/kg, 7 hr",48 ng/mL
same,Analyzed in blood: Bifeprunox,"[1]; po, 5 mg/kg, 24 hr",38 ng/mL
same,Analyzed in blood: N-oxide (of bifeprunox),"[1]; po, 5 mg/kg, 24 hr",6 ng/mL
"O=c1[nH]c2cccc(N3CC[N+]([O-])(Cc4ccccc4)CC3)c2o1 [N-oxide of SLV318, N-Oxide of SLV318]",Analyzed in blood: N-oxide (of SLV318),"[1]; iv, 0.5 mg/kg, 24 hr",0 ng/mL
same,Analyzed in blood: SLV318,"[1]; po, 5 mg/kg, 0.17 hr",1 ng/mL
same,Analyzed in blood: SLV318,"[1]; po, 5 mg/kg, 0.5 hr",7 ng/mL
same,Analyzed in blood: N-oxide (of SLV318),"[1]; po, 5 mg/kg, 3 hr",0 ng/mL
same,Analyzed in blood: SLV318,"[1]; po, 5 mg/kg, 24 hr",0 ng/mL
